Test results as given in paper PMC5051147, “Ester Hydrolysis Differentially Reduces Aconitine-Induced Anti-hypersensitivity and Acute Neurotoxicity: Involvement of Spinal Microglial Dynorphin Expression and Implications for Aconitum Processing” (Frontiers in Pharmacology, 2016).
Entries after “also recorded” stand apart in the source; their conditions may differ.

What was measured:
[1] = test system: heat hyperalgesia in spinal L5/L6 nerve–ligated neuropathic rats; test: Heat hyperalgesia (radiant heat paw withdrawal latency) after intrathecal injection in spinal nerve-ligated neuropathic rats; assay type: in vivo, rat
Procedure: (§1) An 18-cm polyethylene catheter (PE-10: 0.28-mm inner diameter and 0.61-mm outer diameter, Clay Adams, Parsippany, NJ, USA) with a volume of 13 μL was inserted into the lumbar level of the spinal cord as described elsewhere under inhalational isoflurane anesthesia (4% for induction and 1% for maintenance) run by an anesthesia meter (Ugo Basile Gas Anesthesia System, Comerio, Italy). Two days after recovery from anesthesia, the placement of the catheter in the spinal cord was verified by administration of 4% lidocaine (10 μL, followed by 15 μL of saline for flushing). Rats that had no motor impairment after placement of the intrathecal catheter were considered for the study, and rats that developed immediate bilateral paralysis of the hindlimbs after intrathecal administration of lidocaine were selected for the study. For intrathecal administration of the control and test articles, 10 μL of each drug was injected with a 50-μL microinjector (Shanghai Anting Micro-Injector Factory, Shanghai, China) and was flushed with 15 μL of normal saline solution.
(§2) To induce hypersensitivity to neuropathic pain, the rats were subjected to spinal nerve ligation as previously described [Kim and Chung (1992)] and [Zhang et al. (2013)]. Unilateral ligation of the L5 and L6 spinal nerves was performed under inhalational isoflurane anesthesia (4% for induction and 1% for maintenance) run by an anesthesia meter (Ugo Basile Gas Anesthesia System). The left L5 and L6 spinal nerves were isolated and tightly ligated with 6-0 silk thread. After ligation, the wound was sutured and the rats were returned to their home cages for recovery. After spinal nerve ligation, only those rats with marked unilateral allodynia to mechanical stimulation (i.e., a hindpaw withdrawal threshold of less than 8 g on the operated side) and with no major impairment were included in the study. Drug testing started 2–4 weeks after spinal nerve ligation.
To assess heat hyperalgesia, the rats were put in a plexiglass box on an elevated glass surface. After an adaptation period of at least 30 min, radiant heat was applied to the plantar medial surface of each hindpaw. The hindpaw withdrawal latency was measured with a Model 390G Plantar Test Analgesia Meter (IITC Life Science Inc.). To prevent tissue damage, the latency cutoff was set at 30 s. The paw withdrawal latency was defined as the time from the onset of radiant heat application to the withdrawal of the hindpaw. Both hindpaws were tested independently three times with a 5-min interval between trials. The result for each test was calculated as the mean of the three repeated measurements.
The percentage of maximal possible effect (% MPE) was calculated using the following formula: (postdrug threshold in ipsilateral hindlimb – baseline threshold in ipsilateral hindlimb)/(baseline threshold in contralateral hindlimb – baseline threshold in ipsilateral hindlimb) × 100 ([Bowersox et al., 1996]). A % MPE value near 100 indicates normal mechanical thresholds (i.e., near contralateral thresholds), and a value near 0 indicates allodynia. For the dose-response curve analysis, the parameters (i.e., minimum effect; Emax, median effective concentration or dose, or median toxic or lethal dose [EC50, ED50, TD50, or LD50], and Hill coefficient [n]) were calculated from the individual dose-response curves using the Prism program (version 5.01, GraphPad Software, San Diego, CA, USA). […]

[2] = test system: mechanical allodynia in spinal L5/L6 nerve–ligated neuropathic rats; test: Mechanical allodynia (von Frey paw withdrawal threshold) after intrathecal injection in spinal nerve-ligated neuropathic rats; assay type: in vivo, rat
Procedure: as §1, §2
To evaluate mechanical allodynia, the animals were acclimatized for at least 30 min to the test environment, namely, a plexiglass box on a metal grid (0.5 cm × 0.5 cm). The hindpaw withdrawal threshold was measured with a 2450 CE Electronic von Frey hair (IITC Life Science Inc, Woodland Hill, CA, USA). An electronic handheld transducer with a No. 15 monofilament was applied perpendicularly to the medial surface of the hindpaws with increasing force (ranging from 0.1 to 90 g) until the rat suddenly withdrew or licked the hindpaw. The lowest force that produced a withdrawal response was considered to be the threshold, which was the mean of three repeated measurements made in a 5-min interval.
The percentage of maximal possible effect (% MPE) was calculated using the following formula: (postdrug threshold in ipsilateral hindlimb – baseline threshold in ipsilateral hindlimb)/(baseline threshold in contralateral hindlimb – baseline threshold in ipsilateral hindlimb) × 100 ([Bowersox et al., 1996]). A % MPE value near 100 indicates normal mechanical thresholds (i.e., near contralateral thresholds), and a value near 0 indicates allodynia. For the dose-response curve analysis, the parameters (i.e., minimum effect; Emax, median effective concentration or dose, or median toxic or lethal dose [EC50, ED50, TD50, or LD50], and Hill coefficient [n]) were calculated from the individual dose-response curves using the Prism program (version 5.01, GraphPad Software, San Diego, CA, USA). To determine the parameters of the dose-response curves, the values of response (Y) were fitted by non-linear least-squares curves to the relation Y = a + bx, where x = [D]^n/(ED50^n + [D]^n), [C]^n/(EC50^n + [C]^n), [D]^n/(TD50^n + [D]^n) or [D]^n/(LD50^n + [D]^n), to give each value of ED50, EC50, TD50, or LD50 and b (Emax) yielding a minimum residual sum of squares of deviations from the theoretical curve ([Wang and Pang, 1993]).

mice = settings: intravenous injection in mice; ref Mizugaki and Ito, 2005; cited from earlier work

In the case of `CCN1C[C@]2(COC)[C@H](O)C[C@H](OC)[C@@]34[C@@H]5C[C@@]6(O)[C@H](OC(=O)c7ccccc7)[C@@H]5[C@@](OC(C)=O)([C@@H]([C@H](OC)[C@H]23)[C@@H]14)[C@@H](O)[C@@H]6OC` [Aconitine, aconitine], the “Emax, blockade of thermal hyperalgesia” value ([1]; 1 h after injection) is reported as 100 % MPE, the “ED50, blockade of thermal hyperalgesia” value ([1]; % MPE at 1 h after injection) is reported as 32 pmol and the “Anti-allodynic effect in ipsilateral paws” value ([2]; intrathecal 100 ng) is reported as “marked and reversible anti-allodynic effect; also recorded: marked and reversible anti-allodynia”. The “Time of peak effect on mechanical allodynia and heat hyperalgesia” value ([2]; intrathecal, ipsilateral paws, after injection) was 1 h, the “Emax, blockade of mechanical allodynia” value ([2]; intrathecal, 1 h after injection) was 61.9 % MPE and the “ED50, blockade of mechanical allodynia” value ([2]; intrathecal, % MPE at 1 h after injection) was 39 pmol. The “Effect on withdrawal responses in the contralateral paws” value ([2]; intrathecal, mechanical and thermal stimuli) was “did not significantly alter the withdrawal responses in the contralateral paws” and the LD50 (mice) was 0.12 mg/kg.
